# Source: ChEMBL document CHEMBL1201862, “PubChem BioAssay data set” (2004)
# Active and inactive are the calls of the source. Cut-off read from the data, not from the text of the source, for most assays here: actives have a measured EC50 and inactives only a lower limit.
# Columns and labels:
# [1] = target: T1, Corticotropin-releasing factor receptor 2/Corticotropin-releasing factor-binding protein (Homo sapiens, UniProt P24387+Q13324); test: activators of CRF receptor 2 with binding protein – uHTS hits, confirmation (AID 602473); format: functional; conditions: read-out: EC50_Mean
# T1 sequence (Q13324 whole entry): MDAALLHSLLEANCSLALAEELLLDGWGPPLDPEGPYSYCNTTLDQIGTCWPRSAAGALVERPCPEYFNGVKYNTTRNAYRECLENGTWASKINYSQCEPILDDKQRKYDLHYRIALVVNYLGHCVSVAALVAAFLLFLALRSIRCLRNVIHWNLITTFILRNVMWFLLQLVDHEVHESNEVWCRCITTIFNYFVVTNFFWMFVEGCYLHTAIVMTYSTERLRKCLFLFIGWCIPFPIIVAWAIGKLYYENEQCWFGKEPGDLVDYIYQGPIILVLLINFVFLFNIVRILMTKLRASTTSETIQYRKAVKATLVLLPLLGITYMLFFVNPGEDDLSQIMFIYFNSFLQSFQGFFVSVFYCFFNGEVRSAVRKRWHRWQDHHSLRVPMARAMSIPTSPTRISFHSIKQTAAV
# T1 sequence (P24387 whole entry): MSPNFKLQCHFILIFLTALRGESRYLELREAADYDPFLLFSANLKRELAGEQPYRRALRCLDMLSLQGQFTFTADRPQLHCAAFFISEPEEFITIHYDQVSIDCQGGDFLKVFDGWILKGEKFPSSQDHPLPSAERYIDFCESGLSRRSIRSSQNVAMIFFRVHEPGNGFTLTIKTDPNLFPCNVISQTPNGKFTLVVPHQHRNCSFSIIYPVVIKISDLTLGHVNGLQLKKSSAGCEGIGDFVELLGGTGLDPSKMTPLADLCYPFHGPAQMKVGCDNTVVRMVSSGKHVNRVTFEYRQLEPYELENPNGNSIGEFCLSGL
# H9c2 = test: cells; format: functional, cell-based; conditions: Rattus norvegicus, H9c2, Myocardium;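 note: confirmatory concentration-response retest of ultra-high-throughput screening hits for modulation of myocardial damage; cell death induced by hydrogen peroxide oxidative stress; compound pretreatment for 60 min then peroxide exposure for 2 h; potency is for protecting the cells against peroxide damage rather than for killing them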
# [2] = test system: Streptococcus sp. 'group A'; test: Streptococcus pyogenes SK(-)GAS viability under kanamycin – luminescence, BacTiterGlo, confirmation, counter-screen for streptokinase expression inhibitor project, dose response (AID 1900); format: functional, organism-based
# Streptokinase A = target: T2, Streptokinase A (Streptococcus pyogenes serotype M1, UniProt P10520); test: viability-normalized secreted streptokinase activity reduction – plasminogen activation absorbance, OD405, dose response (AID 1914); format: functional, Streptococcus pyogenes M1 GAS;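 note: secreted streptokinase activity via plasminogen activation per viability signal from cell pellet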
# T2 sequence (P10520 whole entry): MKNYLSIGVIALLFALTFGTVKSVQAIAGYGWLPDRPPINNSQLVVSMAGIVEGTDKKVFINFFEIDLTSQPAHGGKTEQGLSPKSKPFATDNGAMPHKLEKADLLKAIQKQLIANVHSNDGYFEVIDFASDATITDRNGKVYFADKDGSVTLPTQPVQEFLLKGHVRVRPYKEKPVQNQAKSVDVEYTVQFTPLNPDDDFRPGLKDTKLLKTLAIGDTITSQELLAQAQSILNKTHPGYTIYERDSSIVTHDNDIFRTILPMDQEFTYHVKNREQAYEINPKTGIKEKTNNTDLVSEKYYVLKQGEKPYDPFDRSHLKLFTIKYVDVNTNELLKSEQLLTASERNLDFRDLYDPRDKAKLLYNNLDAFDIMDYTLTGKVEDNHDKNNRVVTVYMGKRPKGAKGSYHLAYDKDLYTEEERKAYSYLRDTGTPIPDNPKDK
# Streptococcus = test: GAS UMAA2166 growth inhibition – luminescence, BacTiterGlo, counter-screen for streptokinase expression inhibitor project, dose response (AID 1915); format: functional, organism-based;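 note: potency for reduction of bacterial viability or growth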
# [3] = target: T3, Replicative DNA helicase DnaB (Mycobacterium tuberculosis, UniProt P9WMR3); test: DnaB intein splicing inhibitors, dose response, biochemical, cell-free fluorescence (AID 449749); format: functional
# T3 sequence (P9WMR3 whole entry): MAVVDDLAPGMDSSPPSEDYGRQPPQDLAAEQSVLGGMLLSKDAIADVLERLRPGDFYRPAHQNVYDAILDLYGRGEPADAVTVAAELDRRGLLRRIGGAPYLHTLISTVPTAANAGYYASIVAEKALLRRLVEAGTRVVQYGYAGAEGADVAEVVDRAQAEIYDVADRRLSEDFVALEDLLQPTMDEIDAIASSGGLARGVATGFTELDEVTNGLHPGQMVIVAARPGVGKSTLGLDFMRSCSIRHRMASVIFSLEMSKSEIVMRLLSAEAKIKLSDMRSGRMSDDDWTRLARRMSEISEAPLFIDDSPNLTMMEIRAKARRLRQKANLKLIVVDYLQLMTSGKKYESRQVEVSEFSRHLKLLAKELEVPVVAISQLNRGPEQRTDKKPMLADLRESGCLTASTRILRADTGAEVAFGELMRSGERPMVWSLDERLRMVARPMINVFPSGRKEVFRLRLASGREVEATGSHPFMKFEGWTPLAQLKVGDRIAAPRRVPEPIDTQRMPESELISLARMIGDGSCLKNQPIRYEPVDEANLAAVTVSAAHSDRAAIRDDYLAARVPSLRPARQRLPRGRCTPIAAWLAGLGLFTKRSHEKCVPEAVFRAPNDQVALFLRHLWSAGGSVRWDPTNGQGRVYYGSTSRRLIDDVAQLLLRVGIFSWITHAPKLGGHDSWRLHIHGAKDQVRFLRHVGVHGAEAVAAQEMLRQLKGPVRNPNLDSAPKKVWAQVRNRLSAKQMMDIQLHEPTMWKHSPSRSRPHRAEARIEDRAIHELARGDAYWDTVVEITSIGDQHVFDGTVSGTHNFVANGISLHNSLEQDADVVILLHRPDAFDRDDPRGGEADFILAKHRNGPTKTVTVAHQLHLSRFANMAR
# Protein RecA = target: T4, Protein RecA (Mycobacterium tuberculosis, UniProt P9WHJ3); test: Fluorescence Cell-Free Homogeneous Dose Retest to Identify Inhibitors of RecA-Intein Splicing Activity. [Related pubchem assays (depositor defined):AID2097, AID2223, AID489010, AID492950]; format: functional
# T4 sequence (P9WHJ3 whole entry): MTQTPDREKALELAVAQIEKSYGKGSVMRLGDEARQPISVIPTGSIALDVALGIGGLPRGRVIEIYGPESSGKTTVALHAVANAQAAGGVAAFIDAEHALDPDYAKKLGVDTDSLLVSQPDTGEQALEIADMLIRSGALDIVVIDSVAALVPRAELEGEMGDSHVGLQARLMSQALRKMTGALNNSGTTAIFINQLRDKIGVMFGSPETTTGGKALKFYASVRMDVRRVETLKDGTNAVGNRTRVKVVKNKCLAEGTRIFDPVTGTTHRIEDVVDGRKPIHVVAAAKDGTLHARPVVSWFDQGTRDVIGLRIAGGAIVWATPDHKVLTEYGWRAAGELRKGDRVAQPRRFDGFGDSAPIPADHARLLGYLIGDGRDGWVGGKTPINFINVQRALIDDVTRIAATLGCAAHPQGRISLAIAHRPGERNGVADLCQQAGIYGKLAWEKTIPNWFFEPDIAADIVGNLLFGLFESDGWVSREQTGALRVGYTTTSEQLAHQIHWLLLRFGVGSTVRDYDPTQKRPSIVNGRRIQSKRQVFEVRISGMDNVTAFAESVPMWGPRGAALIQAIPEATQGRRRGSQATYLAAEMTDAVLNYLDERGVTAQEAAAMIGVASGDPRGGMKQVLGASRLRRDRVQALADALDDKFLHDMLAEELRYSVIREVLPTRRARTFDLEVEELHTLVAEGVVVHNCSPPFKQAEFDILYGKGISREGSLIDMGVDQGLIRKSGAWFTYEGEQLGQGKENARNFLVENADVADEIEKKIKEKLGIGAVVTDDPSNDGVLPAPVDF
# Genome polyprotein = Genome polyprotein (dengue virus type 2, UniProt P29990); test: flavivirus cap methylation enzyme inhibition – biochemical, confirmation dose response, primary screen (AID 588689); format: functional
# [4] = fluconazole-exposed Candida albicans growth modulators – fluorescence, retest, confirmation (AID 2467); format: functional, cell-based
# [5] = NIH-3T3 fibroblast cytotoxicity, dose response, cytotoxicity control, cell-based, fluorescence, Alamar Blue, secondary assay (AID 2327); format: functional;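 note: NIH-3T3 mouse fibroblasts cultured with fluconazole at 8 µg/mL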
# [6] = target: T5, Heat shock factor protein 1 (Mus musculus, UniProt P38532); test: enhancement of HSF1-driven luciferase signal – cell-based, NIH3T3, luminescence, dose retest, confirmation (AID 435004); format: functional;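 note: stress induced by proteasome inhibitor MG132 added 30 min after compound; luciferase reporter driven by HSF1 response element in NIH3T3 cells; actives raise luminescence as potentiators of the MG132 stress response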
# T5 sequence (P38532 whole entry): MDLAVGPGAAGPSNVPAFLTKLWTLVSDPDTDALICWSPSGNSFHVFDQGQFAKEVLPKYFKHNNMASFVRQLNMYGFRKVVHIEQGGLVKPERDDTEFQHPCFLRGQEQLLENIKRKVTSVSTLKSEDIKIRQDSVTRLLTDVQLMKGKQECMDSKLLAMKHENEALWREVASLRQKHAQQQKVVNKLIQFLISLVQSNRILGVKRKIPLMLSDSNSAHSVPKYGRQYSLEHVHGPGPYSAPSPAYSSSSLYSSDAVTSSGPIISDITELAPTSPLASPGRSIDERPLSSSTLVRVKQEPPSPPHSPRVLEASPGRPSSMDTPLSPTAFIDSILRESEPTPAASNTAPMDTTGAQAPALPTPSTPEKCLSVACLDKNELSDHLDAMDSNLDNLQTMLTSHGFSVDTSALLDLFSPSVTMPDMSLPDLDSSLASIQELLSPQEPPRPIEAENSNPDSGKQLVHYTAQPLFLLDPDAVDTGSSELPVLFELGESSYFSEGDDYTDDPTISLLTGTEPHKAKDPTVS
# Chain of Genome polyprotein (P29990 2492-3391 limits assumed): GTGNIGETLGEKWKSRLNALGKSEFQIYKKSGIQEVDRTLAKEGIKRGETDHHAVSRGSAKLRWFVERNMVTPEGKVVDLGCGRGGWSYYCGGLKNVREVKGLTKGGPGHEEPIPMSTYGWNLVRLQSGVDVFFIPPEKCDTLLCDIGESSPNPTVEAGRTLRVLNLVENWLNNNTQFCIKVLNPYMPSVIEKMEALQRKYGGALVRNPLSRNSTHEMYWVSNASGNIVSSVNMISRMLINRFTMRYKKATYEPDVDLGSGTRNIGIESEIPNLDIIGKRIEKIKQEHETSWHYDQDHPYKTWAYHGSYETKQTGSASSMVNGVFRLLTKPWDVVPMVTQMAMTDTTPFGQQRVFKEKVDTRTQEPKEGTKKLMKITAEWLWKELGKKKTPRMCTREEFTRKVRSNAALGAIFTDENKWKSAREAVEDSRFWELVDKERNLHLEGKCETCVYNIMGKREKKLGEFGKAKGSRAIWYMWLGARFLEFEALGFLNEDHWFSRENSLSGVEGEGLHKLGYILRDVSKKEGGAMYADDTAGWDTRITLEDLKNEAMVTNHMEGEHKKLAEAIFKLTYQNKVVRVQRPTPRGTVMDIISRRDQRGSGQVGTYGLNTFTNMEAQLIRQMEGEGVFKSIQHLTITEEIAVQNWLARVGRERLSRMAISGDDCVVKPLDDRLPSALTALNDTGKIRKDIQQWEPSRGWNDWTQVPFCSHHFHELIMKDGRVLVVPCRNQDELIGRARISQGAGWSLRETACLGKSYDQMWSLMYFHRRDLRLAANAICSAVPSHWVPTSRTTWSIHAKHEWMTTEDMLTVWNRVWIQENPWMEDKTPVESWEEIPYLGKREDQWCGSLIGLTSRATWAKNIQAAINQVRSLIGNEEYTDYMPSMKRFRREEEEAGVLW
smiles,measurement,setting,value
O=S(=O)(NC1CCCCC1N1CCN(c2ccccc2F)CC1)c1ccc(Cl)cc1 (centres undefined),EC50,[1],6.24 µM (active)
O=C(Nc1ccccc1)c1cccc2c(-c3cccnc3)coc12,IC50,H9c2,> 79 µM (inactive)
COc1cccc(OC)c1C(=O)Nc1cc(C)nn1-c1nc2ccccc2[nH]1,EC50,[2],15.5 µM (active)
same,EC50,Streptokinase A,> 150 µM (not active)
same,EC50,Streptococcus,> 150 µM (not active)
same,IC50,H9c2,> 79 µM (inactive)
COC1=CC(=O)C(O)=C(CCCCCCC/C=C/CCCCCCCC2=C(O)C(=O)C=C(OC)C2=O)C1=O,AC50,[3],2.6 µM (active)
same,EC50,Protein RecA,2.13 µM (active)
same,IC50,Genome polyprotein,10.8 µM (active)
same,EC50,[4],> 38 µM (not active)
same,EC50,[5],> 160 µM (inactive)
Cc1c(-c2nnc(S)n2-c2ccc(C(F)(F)F)cc2)nnn1-c1ccccc1,EC50,[6],> 260 µM (inactive)
O=C(N/N=C/c1ccc2c(c1)OCO2)c1cc(-c2ccccc2Cl)nc2ccccc12,EC50,[4],0.684 µM (active)
same,EC50,[5],94.7 µM (inconclusive)
Cc1noc(C)c1COC(=O)c1ccccc1Oc1ccccc1,EC50,[6],> 260 µM (inactive)
CCCCc1ccc(/N=C/C2=C(O)OC3(CCCCC3)OC2=O)cc1,EC50,[1],5.81 µM (active)
CC(C)c1ccc(N(C(=O)CNC(=O)c2ccco2)C(C(=O)NC2CCCC2)c2ccncc2)cc1 (centres undefined),EC50,[6],> 260 µM (inactive)
COc1ccc(-n2cccc2/C=C2\C(=N)N3N=C(C(C)C)SC3=NC2=O)cc1,EC50,[4],> 38 µM (not active)
same,EC50,[5],> 150 µM (inactive)
COc1cc(NC(=O)c2ccco2)c(C(=O)OCC(=O)c2c[nH]c3ccccc23)cc1OC,IC50,H9c2,> 79 µM (inactive)
COc1cccc(NC(=S)NC(=O)Cc2ccc(Cl)cc2)c1,EC50,[1],5.76 µM (active)
CC(C)Cc1ccc(CN2CCCC(NC(=O)CCN3CCCO3)C2)cc1 (centres undefined),EC50,[4],> 38 µM (not active)
same,EC50,[5],> 160 µM (inconclusive)
Cc1ccc2nc(NCc3ccccc3)c(C=O)c(=O)n2c1,EC50,[6],> 260 µM (inactive)
